The values below come from patent publication US20090124606A1, “Composition for Treatment of Psychosis” (priority 2005, published 2009).

One data set addresses 5-HT2C (Homo sapiens, UniProt P28335). Particulars: read-out: Receptor Affinity (Ki); cited from earlier work.
For data set [1] the following is noted: deramciclane alone; cited from earlier work.
In a further data set the test system is NMRI mice. The data set is described as follows: Inhibition of catalepsy generated by haloperidol (45° inclined grid). The class given is in vivo. As for the experimental part:
Experiments were elaborated on 20-25 g weight NMRI mice. Groups of 10 mice were treated intraperitoneally with 15 mg/kg of haloperidol and carrier agent. Deramciclane (and carriers) were administered orally in different doses 60 minutes later. After a subsequent 60 minutes period mice were placed to a grid which has an inclination angle of 45°. In case of the animals were motionless for more than 30 seconds on the grid the events were seen as catalepsy. The procedure was repeated in every 30 minutes for 3 hours.
The effects are shown by percentage of changes compared to control group.

For the next data set, the target named is Dopamine D2 (Homo sapiens, UniProt P14416). The settings on record: read-out: Receptor Affinity (Ki); cited from earlier work.
Another data set deals with 5-HT2A (Homo sapiens, UniProt P28223). Particulars: read-out: Receptor Affinity (Ki); cited from earlier work.
Chain of 5-HT2A (P28223 whole entry, species assumed): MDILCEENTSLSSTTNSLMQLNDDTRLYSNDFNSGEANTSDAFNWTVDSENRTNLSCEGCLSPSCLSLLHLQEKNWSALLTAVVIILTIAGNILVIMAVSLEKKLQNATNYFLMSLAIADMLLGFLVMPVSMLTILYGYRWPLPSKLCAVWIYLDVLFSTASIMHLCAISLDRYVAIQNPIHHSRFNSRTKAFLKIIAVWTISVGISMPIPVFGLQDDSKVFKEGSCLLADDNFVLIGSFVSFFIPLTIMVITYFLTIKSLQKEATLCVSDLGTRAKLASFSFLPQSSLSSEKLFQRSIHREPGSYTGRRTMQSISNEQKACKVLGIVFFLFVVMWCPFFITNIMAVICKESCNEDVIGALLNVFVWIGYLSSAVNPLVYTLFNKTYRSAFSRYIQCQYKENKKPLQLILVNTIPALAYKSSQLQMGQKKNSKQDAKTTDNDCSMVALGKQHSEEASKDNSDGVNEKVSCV

Chain of Dopamine D2 (P14416 whole entry): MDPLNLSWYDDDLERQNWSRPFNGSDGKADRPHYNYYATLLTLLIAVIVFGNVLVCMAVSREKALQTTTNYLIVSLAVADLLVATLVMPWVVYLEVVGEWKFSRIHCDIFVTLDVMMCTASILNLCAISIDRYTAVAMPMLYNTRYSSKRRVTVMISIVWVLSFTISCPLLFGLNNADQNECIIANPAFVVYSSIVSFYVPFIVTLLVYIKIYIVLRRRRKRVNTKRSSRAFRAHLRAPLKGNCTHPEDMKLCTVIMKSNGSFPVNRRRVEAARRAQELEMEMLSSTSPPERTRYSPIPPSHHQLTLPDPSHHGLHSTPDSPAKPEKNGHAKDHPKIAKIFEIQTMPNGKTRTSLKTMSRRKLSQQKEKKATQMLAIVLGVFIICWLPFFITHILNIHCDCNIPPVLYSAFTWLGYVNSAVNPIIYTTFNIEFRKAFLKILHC
Chain of 5-HT2C (P28335 33-458, species assumed): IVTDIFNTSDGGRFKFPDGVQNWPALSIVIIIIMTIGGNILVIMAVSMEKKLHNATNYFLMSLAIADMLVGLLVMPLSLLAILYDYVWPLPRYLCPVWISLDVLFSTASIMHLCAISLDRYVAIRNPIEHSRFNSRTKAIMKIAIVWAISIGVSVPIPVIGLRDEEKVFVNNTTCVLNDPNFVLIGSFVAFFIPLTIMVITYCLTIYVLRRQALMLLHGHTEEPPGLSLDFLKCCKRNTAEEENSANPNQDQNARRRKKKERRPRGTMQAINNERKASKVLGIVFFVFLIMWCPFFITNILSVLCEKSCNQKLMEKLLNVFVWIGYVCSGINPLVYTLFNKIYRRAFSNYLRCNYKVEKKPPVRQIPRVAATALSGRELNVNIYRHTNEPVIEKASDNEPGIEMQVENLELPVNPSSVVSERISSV

Regarding `CN(C)CCO[C@]1(c2ccccc2)C[C@H]2CC[C@]1(C)C2(C)C` [Deramciclane, (1R,2S,4R)-(−)-2-[N,N-(dimethylamino-ethoxy)]-2-phenyl-1,7,7-trimethyl-biciklo[2.2.1]heptane], the figures for the Ki on 5-HT2C, on Dopamine D2 and on 5-HT2A were 0.027 µM, 0.113 µM and 0.011 µM, respectively. The “Catalepsy caused by the compound by itself (in words)” value in data set [1] is reported as “does not cause catalepsy by itself”. Further, the “Catalepsy (average ± SE)/10 animals” value is recorded as 6.5 ± 0.7 /10 animals in the data set on NMRI mice (deramciclane 20 mg/kg po. + haloperidol 15 mg/kg ip., p < 0.05 vs haloperidol); 4.7 ± 1.3 /10 animals in the data set on NMRI mice (deramciclane 40 mg/kg po. + haloperidol 15 mg/kg ip., p < 0.05 vs haloperidol); 3.5 ± 1.5 /10 animals in the data set with NMRI mice (deramciclane 80 mg/kg po. + haloperidol 15 mg/kg ip., p < 0.05 vs haloperidol). Moreover, in the data set with NMRI mice (deramciclane 20-80 mg/kg po., haloperidol 15 mg/kg ip.), the “Inhibition of catalepsy generated by haloperidol (in words)” value is given as “inhibits the catalepsy generated by haloperidol in a dose dependent way”.
As to `O=C(CCCN1CCC(O)(c2ccc(Cl)cc2)CC1)c1ccc(F)cc1` [Haloperoidol, haloperidol, reference compound], the “Catalepsy (average ± SE)/10 animals” value with NMRI mice (haloperidol 15 mg/kg ip. alone (plus carrier)) was 9.3 ± 0.4 /10 animals.
